{
  "source": "PubChem BioAssay AID2060885",
  "about": "(Molecular Pharmacology Branch, DTP, NCI, 2025)",
  "test_system": "NCI-H23 complex spheroids with HUVEC/MSC, viability",
  "test": "Anticancer human tumor NCI-H23 cell line growth inhibition [RAS];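 note: spheroids exposed to compound for 7 days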;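 for viability, T/C: 100% = DMSO vehicle control viability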",
  "conditions": "for IC50: curve of first compound; for viability, T/C: stronger effect = lower value",
  "outline": "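Tumour cells grown as complex spheroids with HUVEC endothelial cells and mesenchymal stem cells, treated with RAS pathway inhibitor combinations. Each agent spans half-log steps from near clinical Cmax, or 10 microM where Cmax is unknown.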",
  "data": [
    {"smiles": "CC1(O)CCCC1n1c(=O)c(C(F)F)cc2cnc(NC3CCN(S(C)(=O)=O)CC3)nc21", "note": "(configuration not stated) + C=CC(=O)N1CCN(c2nc(OCC3CCCN3C)nc3c(F)c(-c4nc(N)cc(C)c4C(F)(F)F)c(Cl)cc23)C(C)C1", "values": [
      {"measurement": "IC50", "setting": "second compound 0.00316 µM", "result": "< 31.6", "unit": "nM"},
      {"measurement": "IC50", "setting": "second compound 0.01 µM", "result": "< 31.6", "unit": "nM"},
      {"measurement": "IC50", "setting": "second compound 0.0316 µM", "result": "< 31.6", "unit": "nM"},
      {"measurement": "IC50", "setting": "second compound 0.1 µM", "result": "< 31.6", "unit": "nM"},
      {"measurement": "IC50", "setting": "second compound 0.316 µM", "result": "< 31.6", "unit": "nM"},
      {"measurement": "IC50", "setting": "second compound 1 µM", "result": "< 31.6", "unit": "nM"},
      {"measurement": "viability, T/C", "setting": "second compound 0.00316 µM, first compound 0.0316 µM", "result": 46.8, "unit": "%"},
      {"measurement": "viability, T/C", "setting": "second compound 0.00316 µM, first compound 0.1 µM", "result": 41.8, "unit": "%"},
      {"measurement": "viability, T/C", "setting": "second compound 0.00316 µM, first compound 0.316 µM", "result": 30.8, "unit": "%"},
      {"measurement": "viability, T/C", "setting": "second compound 0.00316 µM, first compound 1 µM", "result": 29.7, "unit": "%"},
      {"measurement": "viability, T/C", "setting": "second compound 0.00316 µM, first compound 3.16 µM", "result": 28.1, "unit": "%"},
      {"measurement": "viability, T/C", "setting": "second compound 0.00316 µM, first compound 10 µM", "result": 6.28, "unit": "%"},
      {"measurement": "viability, T/C", "setting": "second compound 0.01 µM, first compound 0.0316 µM", "result": 44.6, "unit": "%"},
      {"measurement": "viability, T/C", "setting": "second compound 0.01 µM, first compound 0.1 µM", "result": 32.1, "unit": "%"},
      {"measurement": "viability, T/C", "setting": "second compound 0.01 µM, first compound 0.316 µM", "result": 24.9, "unit": "%"},
      {"measurement": "viability, T/C", "setting": "second compound 0.01 µM, first compound 1 µM", "result": 27.3, "unit": "%"},
      {"measurement": "viability, T/C", "setting": "second compound 0.01 µM, first compound 3.16 µM", "result": 25.9, "unit": "%"},
      {"measurement": "viability, T/C", "setting": "second compound 0.01 µM, first compound 10 µM", "result": 4.38, "unit": "%"},
      {"measurement": "viability, T/C", "setting": "second compound 0.0316 µM, first compound 0.0316 µM", "result": 36.1, "unit": "%"},
      {"measurement": "viability, T/C", "setting": "second compound 0.0316 µM, first compound 0.1 µM", "result": 26.5, "unit": "%"},
      {"measurement": "viability, T/C", "setting": "second compound 0.0316 µM, first compound 0.316 µM", "result": 23.1, "unit": "%"},
      {"measurement": "viability, T/C", "setting": "second compound 0.0316 µM, first compound 1 µM", "result": 25.3, "unit": "%"},
      {"measurement": "viability, T/C", "setting": "second compound 0.0316 µM, first compound 3.16 µM", "result": 26.5, "unit": "%"},
      {"measurement": "viability, T/C", "setting": "second compound 0.0316 µM, first compound 10 µM", "result": 3.8, "unit": "%"},
      {"measurement": "viability, T/C", "setting": "second compound 0.1 µM, first compound 0.0316 µM", "result": 34.6, "unit": "%"},
      {"measurement": "viability, T/C", "setting": "second compound 0.1 µM, first compound 0.1 µM", "result": 28.7, "unit": "%"},
      {"measurement": "viability, T/C", "setting": "second compound 0.1 µM, first compound 0.316 µM", "result": 22.1, "unit": "%"},
      {"measurement": "viability, T/C", "setting": "second compound 0.1 µM, first compound 1 µM", "result": 22.6, "unit": "%"},
      {"measurement": "viability, T/C", "setting": "second compound 0.1 µM, first compound 3.16 µM", "result": 23.6, "unit": "%"},
      {"measurement": "viability, T/C", "setting": "second compound 0.1 µM, first compound 10 µM", "result": 4.58, "unit": "%"},
      {"measurement": "viability, T/C", "setting": "second compound 0.316 µM, first compound 0.0316 µM", "result": 31.2, "unit": "%"},
      {"measurement": "viability, T/C", "setting": "second compound 0.316 µM, first compound 0.1 µM", "result": 23.1, "unit": "%"},
      {"measurement": "viability, T/C", "setting": "second compound 0.316 µM, first compound 0.316 µM", "result": 22.4, "unit": "%"},
      {"measurement": "viability, T/C", "setting": "second compound 0.316 µM, first compound 1 µM", "result": 20.3, "unit": "%"},
      {"measurement": "viability, T/C", "setting": "second compound 0.316 µM, first compound 3.16 µM", "result": 27.6, "unit": "%"},
      {"measurement": "viability, T/C", "setting": "second compound 0.316 µM, first compound 10 µM", "result": 3.96, "unit": "%"},
      {"measurement": "viability, T/C", "setting": "second compound 1 µM, first compound 0.0316 µM", "result": 27.1, "unit": "%"},
      {"measurement": "viability, T/C", "setting": "second compound 1 µM, first compound 0.1 µM", "result": 25.9, "unit": "%"},
      {"measurement": "viability, T/C", "setting": "second compound 1 µM, first compound 0.316 µM", "result": 21, "unit": "%"},
      {"measurement": "viability, T/C", "setting": "second compound 1 µM, first compound 1 µM", "result": 22, "unit": "%"},
      {"measurement": "viability, T/C", "setting": "second compound 1 µM, first compound 3.16 µM", "result": 23.5, "unit": "%"},
      {"measurement": "viability, T/C", "setting": "second compound 1 µM, first compound 10 µM", "result": 2.26, "unit": "%"}
    ]}
  ]
}
